The record followed here is patent US12037644B2, “Use of FGFR mutant gene panels in identifying cancer patients that will be responsive to treatment with an FGFR inhibitor” (Janssen Pharmaceutica NV, priority 2014, dated 2024).

For test [1], the system named is RK3E-Transgene TACC3-V1 (FGFR fusion stably transfected RK3E cells). As to the kind of experiment: Drug response testing (Cell Titer-Glo proliferation), RK3E FGFR3:TACC3 v1. To be noted: Rattus norvegicus, 72 h, read-out: Stimulated Proliferation (IC50). On the technique in general: In ATP-based viability assays light output follows the ATP content of the culture.
Description: (§1) RK3E (rat kidney epithelial cells) cells were purchased from ATCC (Manassas, VA, USA) and cultured in DMEM supplemented with FBS and antibiotics (Invitrogen, Grand Island, NY, USA).
(§2) After 24 hours, cells were serum starved overnight, then re-fed with 0.5% FBS growth media. […] The Microtiter plates were then incubated for 72 hours and assayed for adenosine triphosphate (ATP; a marker of metabolically active cells) content using the Cell Titer-Glo® Luminescent Cell Viability assay (Promega Corp., Madison, WI, USA) following the manufacturer's instructions, with modifications. Briefly, cells were allowed to equilibrate to room temperature, at which time a 1:1 mixture of Cell Titer-Glo® reagent was added. Cells were then placed on an orbital shaker for 2 minutes and incubated for 10 minutes at room temperature to stabilize the luminescent signal. The luminescence was quantified and measurements were conducted using an Envision Multilabel plate reader (Perkin Elmer; Waltham, MA, USA).
The subject of the next test is RK3E-Transgene FGFR3. As to the kind of experiment: Drug response testing (Cell Titer-Glo proliferation), RK3E FGFR3. To be noted: Rattus norvegicus, 72 h, read-out: Stimulated Proliferation (IC50).
Test [2] concerns RK3E-Transgene Vector (empty vector control RK3E cells). As to the kind of experiment: Drug response testing (Cell Titer-Glo proliferation), RK3E empty vector control. To be noted: Rattus norvegicus, 72 h, read-out: Stimulated Proliferation (IC50).
Description: as §2
The next test has as its system RK3E-Transgene KRAS. As to the kind of experiment: Drug response testing (Cell Titer-Glo proliferation), RK3E KRAS. The settings on record: Rattus norvegicus, 72 h, read-out: Stimulated Proliferation (IC50).
The subject of test [3] is phosphorylation of FGFR, MAPK and S6 in FGFR fusion stably transfected RK3E cells. Kind of test: Downstream target expression (immunoblotting). Type of test: cell-based, rat. The settings on record: 1 μM, in the presence of ligands, 1 hour; FIGS. 14A-14H. As to the method: For immunoblotting, whole cell lysates were collected in RIPA buffer (Thermo Scientific, Waltham, MA, USA) and sample protein concentration was assayed using BCA Protein Assay (Thermo Scientific). Equal amounts of protein (30 μg per lane) were loaded onto on 4-12% Bis-Tris gels (Invitrogen) before an SDS-page was performed. Proteins were transferred to nitrocellulose membranes and probed with antibodies against p-FGFR, total-FGFR2, p-MAPK, total-MAPK, p-S6, total S6, B-actin (Cell Signaling Technology, Danvers, MA, USA), and total-FGFR3 (Santa Cruz, Dallas, TX, USA). The membranes were blocked with Odyssey blocking buffer for 1 h at room temperature and incubated overnight at 4° C. in a primary antibody solution diluted in Odyssey blocking buffer (1:1000). After three washes in 0.1% Tween tris buffered saline (TBST), the membranes were probed with goat anti-mouse or donkey anti-rabbit IR-Dye […] or 800 cw labeled secondary antisera in Odyssey blocking buffer for 1 h at room temperature. Washes were repeated after secondary labeling and the membranes were imaged using a LiCor Odyssey scanner and the Odyssey 3.0 analytical software (LiCor, Lincoln, NE, USA).
(In general: A western blot detects proteins with antibodies after separation by electrophoresis.)

Test [4] relates to RK3E-Transgene AFF3 (FGFR fusion stably transfected RK3E cells). As to the kind of experiment: Drug response testing (Cell Titer-Glo proliferation), RK3E FGFR2:AFF3. The settings on record: Rattus norvegicus, 72 h, read-out: Stimulated Proliferation (IC50).
Description: as §1, §2
The subject of test [5] is RK3E-Transgene CCDC6 (FGFR fusion stably transfected RK3E cells). As to the kind of experiment: Drug response testing (Cell Titer-Glo proliferation), RK3E FGFR2:CCDC6. To be noted: Rattus norvegicus, 72 h, read-out: Stimulated Proliferation (IC50).
Excerpt: (§3) RK3E (rat kidney epithelial cells) cells were purchased from ATCC (Manassas, VA, USA) and cultured in DMEM supplemented with FBS and antibiotics (Invitrogen, Grand Island, NY, USA). FGFR fusion gene constructs were designed and cloned into the pReceiver expression vector (Genecopoeia, Rockville, MD, USA), which contains an HA-tag. Clones were transfected into RK3E cells using the Amaxa Cell Line Nucleofector (Lonza, Basel, Switzerland) following the manufacturer's protocol. The stably transfected cells were selected in complete medium with 800 ug/ml of G418 (Invitrogen).
as §2
Test [6] deals with RK3E-Transgene BICC1 (FGFR fusion stably transfected RK3E cells). As to the kind of experiment: Drug response testing (Cell Titer-Glo proliferation), RK3E FGFR2:BICC1. The settings on record: Rattus norvegicus, 72 h, read-out: Stimulated Proliferation (IC50).
Description: as §1, §2
Another test concerns RK3E-Transgene FGFR2. Kind of test: Drug response testing (Cell Titer-Glo proliferation), RK3E FGFR2. The settings on record: Rattus norvegicus, 72 h, read-out: Stimulated Proliferation (IC50).
Test [7] relates to RK3E-Transgene BAIA2PL1 (FGFR fusion stably transfected RK3E cells). Kind of test: Drug response testing (Cell Titer-Glo proliferation), RK3E FGFR3:BAIAP2L1. To be noted: Rattus norvegicus, 72 h, read-out: Stimulated Proliferation (IC50).
Description: as §2
Test [8] relates to RK3E-Transgene CASP7 (FGFR fusion stably transfected RK3E cells). Kind of test: Drug response testing (Cell Titer-Glo proliferation), RK3E FGFR2:CASP7. The settings on record: Rattus norvegicus, 72 h, read-out: Stimulated Proliferation (IC50).
Excerpt: as §3, §2
Test [9] relates to FGFR fusion stably transfected RK3E cells. Kind of test: Drug response testing for FGFR-fusion overexpressing cell lines (overall statement). The settings on record: for sensitivity of cells harboring the FGFR fusions to the FGFR inhibitor in vitro: empty vector control did not show sensitivity.
Description: as §2
The subject of test [10] is RK3E-Transgene TACC3-V3 (FGFR fusion stably transfected RK3E cells). Kind of test: Drug response testing (Cell Titer-Glo proliferation), RK3E FGFR3:TACC3 v3. To be noted: Rattus norvegicus, 72 h, read-out: Stimulated Proliferation (IC50).
Description: as §1, §2
The subject of test [11] is RK3E-Transgene OFD1 (FGFR fusion stably transfected RK3E cells). Kind of test: Drug response testing (Cell Titer-Glo proliferation), RK3E FGFR2:OFD1. The settings on record: Rattus norvegicus, 72 h, read-out: Stimulated Proliferation (IC50).
Excerpt: as §3, §2
Test [12] relates to advanced solid tumors (patients with FGFR fusion genes / FGFR aberrations). As to the kind of experiment: Phase I First-In-Human study in patients with advanced solid tumor. The settings on record: FIG. 11. Format: in vivo.

Description for RK3E-Transgene FGFR2: as §1, §2
Description for RK3E-Transgene FGFR3: as §2
Description for RK3E-Transgene KRAS: as §2

Take `CCN1CCN(c2ccc(Nc3cc(N(C)C(=O)Nc4c(Cl)c(OC)cc(OC)c4Cl)ncn3)cc2)CC1` [NVP-BGJ398, 3-(2,6-Dichloro-3,5-dimethoxy-phenyl)-1-{6-[4-(4-ethyl-piperazin-1-yl)-phenylamino]-pyrimid-4-yl}-1-methyl-urea]: the IC50 was 2.59 nM in [1]; 6340 nM with RK3E-Transgene FGFR3; greater than 10000 nM in [2]; 2140 nM in the test on RK3E-Transgene KRAS; 2.27 nM in test [4]; 10.7 nM in test [5]. The IC50 in [6] is 18.2 nM; in the test with RK3E-Transgene FGFR2 it was greater than 10000 nM; in test [7], 5.16 nM; in test [8] it was 242 nM; in test [10], 4.09 nM; in test [11], 16 nM. In addition, the “phosphorylation of FGFR and downstream targets MAPK and S6 (immunoblot)” value (“phosphorylation” for short) in test [3] was “inhibited phosphorylation of FGFR and downstream targets i.e. MAPK and S6”. Besides, the “sensitivity of cells harboring the FGFR fusions to the FGFR inhibitor in vitro” value in test [9] is listed as “showed sensitivity”.
Regarding `COc1cc(OC)cc(N(CCNC(C)C)c2ccc3ncc(-c4cnn(C)c4)nc3c2)c1` [JNJ-42756493, N-(3,5-dimethoxyphenyl)-N′-(1-methylethyl)-N-[3-(1-methyl-1H-pyrazol-4-yl)quinoxalin-6-yl]ethane-1,2-diamine], the “clinical responses (RECIST)” value in test [12] (9 mg once a day (QD), 12 mg QD and 12 mg 7d on/off, patients with the FGFR fusion genes) is recorded as “Significant clinical responses”. Further, the “maximal percentage reduction of sum of the diameters of targeted lesions from baseline (RECIST)” value in [12] (dose level >= 6 mg, daily or intermittent (7 days on - 7 days off), patients whose tumors harbor FGFR gene translocations and mutations) was “appear to be more sensitive”. Besides, the “phosphorylation” value in test [3] was “inhibited phosphorylation of FGFR and downstream targets i.e. MAPK and S6”. In addition, in [9] (nanomolar concentration range), the “sensitivity when compared to AZD4547 and NVP-BGJ398” value is “enhanced sensitivity”.
With `COc1cc(CCc2cc(NC(=O)c3ccc(N4C[C@@H](C)N[C@@H](C)C4)cc3)n[nH]2)cc(OC)c1` [AZD4547, N-[5-[2-(3,5-Dimethoxyphenyl)ethyl]-2H-pyrazol-3-yl]-4-(3,5-diemthylpiperazin-1-yl)benzamide], the IC50 in test [1] was found to be 16.5 nM; with RK3E-Transgene FGFR3 it was 5690 nM; in test [2] it was 8010 nM; in the test on RK3E-Transgene KRAS it was 1480 nM; in test [7], 11.5 nM; in [10] it was 8.66 nM. The “phosphorylation” value in [3] was “inhibited phosphorylation of FGFR and downstream targets i.e. MAPK and S6”. In addition, the “sensitivity of cells harboring the FGFR fusions to the FGFR inhibitor in vitro” value in test [9] is “showed sensitivity”.
